For one experiment, the system named is KB. In words: Cytotoxicity against human KB cells. The class given is functional. The note with it: read-out: ED50 (the source's name).
A short description of experiment [1]: Anticarcinogenic activity in hamster embryonic cells at 25 ug/mL after 30 mins relative to control. It counts as functional, Cricetinae.

The structures appear in SMILES notation. In brackets after ≈: the same amount, converted by molar mass.

As for `C=C1C(=O)O[C@@H]2C[C@@]3(C)C[C@@H](O)C[C@H](C)[C@@]34O[C@H]4[C@H]12`, the EC50 in the experiment on KB is 0.4 µg/mL (≈ 1.51 µM). Turning to `COc1c(O)cc2oc(-c3ccc(O)c(O)c3)c(OC)c(=O)c2c1O` [AXILLARIN], the Activity in experiment [1] stood at 61.3%. As for `C=C1C(=O)O[C@@H]2C[C@@]3(C)C[C@@H](O)C[C@H](C)C3=C[C@H]12`, the EC50 with KB was 0.33 µg/mL (≈ 1.33 µM). The same measure, in the same setting: the result for `C=C1C(=O)O[C@@H]2C[C@@]3(C)C[C@@H](OC(C)=O)C[C@H](C)[C@@]34O[C@H]4[C@H]12` reads 0.05 µg/mL (≈ 0.163 µM).

The record behind these values is ChEMBL document CHEMBL1151100, “Potential cancer chemopreventive and cytotoxic agents from Pulicaria crispa” (1988).
